The results in this text go back to patent US20090232735A1, “USE OF FRUCTOSE-BASED THERAPIES FOR THE TREATMENT OF CANCER” (CEDARS-SINAI MEDICAL CENTER, priority 2005, published 2009).

Common to all, as to format: cell-based, human
For assay [1], the system named is fructokinase-1 (FK-1) mRNA. Nature of the assay: Fructokinase-1 mRNA by Northern blot in MCF-7 cells. As to conditions: MCF-7, 5.5 mM fructose, 24 h. The method, then:
FIG. 9 depicts Northern blot analysis of fructokinase-1 mRNA levels in MCF-7 breast cancer cells in accordance with an embodiment of the present invention. 20 μg total RNA was used to measure FK-1 mRNA levels in the MCF-7 cells following growth in 2 mM glucose, 5.5 mM glucose, or 5.5 mM fructose for 24 h. FK-1 was also detected in human liver, with lower levels in muscle tissue.
In additional studies, the inventors used Northern blot to confirm significant FK-1 mRNA expression in the breast cancer cells. As depicted in FIG. 9, fructokinase-1 mRNA expression was detected in MCF-7 cells cultured in 2, and 5.5 mM glucose, and 5.5 mM fructose, and in human muscle and liver tissue.

Assay [2] has as its system PANC-1 pancreatic cancer cells. Nature of the assay: PANC-1 pancreatic cancer cell proliferation (MTS assay). The method, then:
FIG. 13 depicts higher proliferation rates in pancreatic cancer cells in fructose (5.5 mM) than glucose (5.5 mM) containing medium in accordance with an embodiment of the present invention. PANC-1 cells were pre-incubated in 2 mM glucose, after which they were plated in 5.5 mM fructose or glucose for times between 12-72 h, after which proliferative rates were measured using an MTS assay. Proliferative rates are expressed as the percentage difference between cells grown in 5.5 mM fructose versus 5.5 mM glucose. p<0.01 for times>48 h.
FIG. 14 depicts proliferation rates of pancreatic cells in different fructose or glucose concentrations in accordance with an embodiment of the present invention. PANC-1 cells were plated in a range of fructose or glucose concentrations (5-25 mM) for 72 h, after which proliferative rates were measured using an MTS assay. *, p<0.05 for concentrations between 5-25 mM fructose versus glucose.
FIG. 17 depicts cell proliferation regardless of co-existent glucose concentration in accordance with an embodiment of the present invention. PANC-1 cells were pre-incubated in 2 mM glucose prior to treatment with a range of concentrations (0-15 mM) mixed with a range of fructose concentrations (0-15 mM) for 72 h. PANC-1 cell proliferative rates were then measured using the MTS assay (absorbance in arbitrary units).
FIG. 35 depicts inhibition of pancreatic cancer PANC-1 cell proliferation by incubation with the transketolase inhibitor, oxythiamine (0.5-2 mM) for 72 h in accordance with an embodiment of the present invention. Proliferative rates were measured using the MTS proliferation assay.
Standard media for maintenance cancer cell line culture, including pancreatic cancer cells such as PANC-1 cells contain either low—(5-7 mM), or high—(12-25 mM) glucose concentrations. Clearly, apart from the setting of hyperglycemia, as in patients with diabetes, the glucose concentrations in which pancreatic cancer cells are maintained in vitro are much higher than normal physiological conditions, which range between 2-5 mM glucose. […] Therefore, the inventors first pre-treated the pancreatic cancer cells overnight in standard DMEM medium containing low physiological glucose concentrations (2 mM glucose), and standard 10% fetal bovine serum. The pancreatic cancer cells were then incubated for times between 12, and 96 hours in standard DMEM medium containing 10% fetal bovine serum, and 5.5 mM glucose or 5.5 mM fructose. Proliferative rates were then measured in replicate (minimum of 6) aliquot wells of the pancreatic cancer cells, and the change (expressed as percent increase) in proliferative rates compared between cells grown in glucose, or fructose containing medium.
This first result intrigued the inventors, but given there is little documentation regarding physiological fructose concentrations, the inventors first considered that the “apparent” pro-proliferative effects of fructose were simply a consequence of the highly stylized in vitro experimental conditions, and that if the pancreatic cancer cells were cultured in higher glucose concentrations, this would result in similar proliferative rates to those the inventors observed following culture in 5.5 mM fructose. Therefore, in the next experiments, the inventors compared proliferative rates of the PANC-1 pancreatic cancer cells following culture for 72 h in a range of fructose, and glucose concentrations (2-25 mM). This timepoint was chosen as the inventors had seen maximal pancreatic cancer cell proliferation in 5.5 mM fructose at 72 h. […] While not wishing to be bound by any particular theory, the inventors believe that this latter finding may be because the PANC-1 cells are proliferating at close to maximal capacity by 72 h, once they are exposed to comparatively low fructose concentrations (5 mM). MTS assay was employed to measure pancreatic cancer cell proliferative rates, which utilizes mitochondrial oxidation to quantify cell proliferation. […]
In general terms: Tetrazolium dyes change colour on reduction, which living cells bring about.

Assay [3] concerns PANC-1 pancreatic cancer cells. Nature of the assay: FACS cell cycle profile of PANC-1 cells. As to conditions: PANC-1, 5.5 mM sugar, 48 h. As to the method: FIG. 15 depicts in the G0/G1 phase and the DNA synthesis (S) phase of pancreatic cells in glucose and fructose in accordance with an embodiment of the present invention. PANC-1 cells were plated in 2, and 5.5 mM glucose or 5.5 mM fructose for 48 h, after which cells were fixed in methanol, nuclei were stained with propidium iodide, and aliquots subjected to FACS analyzes.
This first result intrigued the inventors, but given there is little documentation regarding physiological fructose concentrations, the inventors first considered that the “apparent” pro-proliferative effects of fructose were simply a consequence of the highly stylized in vitro experimental conditions, and that if the pancreatic cancer cells were cultured in higher glucose concentrations, this would result in similar proliferative rates to those the inventors observed following culture in 5.5 mM fructose. Therefore, in the next experiments, the inventors compared proliferative rates of the PANC-1 pancreatic cancer cells following culture for 72 h in a range of fructose, and glucose concentrations (2-25 mM). This timepoint was chosen as the inventors had seen maximal pancreatic cancer cell proliferation in 5.5 mM fructose at 72 h. […] While not wishing to be bound by any particular theory, the inventors believe that this latter finding may be because the PANC-1 cells are proliferating at close to maximal capacity by 72 h, once they are exposed to comparatively low fructose concentrations (5 mM). MTS assay was employed to measure pancreatic cancer cell proliferative rates, which utilizes mitochondrial oxidation to quantify cell proliferation. As the inventors were examining carbohydrate-mediated effects, the inventors considered the change observed in proliferative rates, as measured by this assay, simply reflected changes in mitochondrial oxidation. Therefore, two additional methods were utilized to examine proliferative rates following fructose-treatment. […]

On to `O=C(CO)[C@@H](O)[C@H](O)[C@H](O)CO` [fructose], for which the “FK-1 mRNA expression (Northern blot)” value in assay [1] is given as “Highest FK-1 expression”. Moreover, in assay [2] (PANC-1, 5.5 mM fructose vs 5.5 mM glucose, 48 h), the “difference in proliferative rates, fructose vs glucose” value is reported as about 13%. In addition, the “higher proliferative rate, fructose vs glucose” value in assay [2] (PANC-1, 5.5 mM fructose vs 5.5 mM glucose, 72 h) worked out at 23%. For the same molecule, the “proliferative rates in 5 mM fructose compared to 25 mM glucose” value in assay [2] (PANC-1, 72 h) is “higher proliferative rates”. Further, the “cell proliferation with admixed glucose (0-15 mM) and fructose (0-15 mM)” value in assay [2] (PANC-1, 72 h, fructose concentrations of 6 mM and above, regardless of glucose concentration) is “an increase in cell proliferation”. Also, in assay [3], the “increase of cells in S-phase in comparison to 2 mM glucose” value is about 17%, the “percentage of cells in S-phase” value was determined as 47% and the “percentage of cells in resting G0/G1” value was 21.2%.
